In brackets after ≈: the same amount, converted by molar mass. Activity calls are given as the source filed them. No cut-off for these calls is given here.
Legend:
Mycobacterium avium [1] = assay: Antimycobacterial activity against isoniazid-resistant Mycobacterium avium at 100 ug/disk by disk diffusion assay; type: functional, organism-based
[2] = test system: Mycobacterium tuberculosis; assay: Antimycobacterial activity against Mycobacterium tuberculosis at 100 ug/disk by disk diffusion assay; type: functional, organism-based
Escherichia coli [3] = assay: Antimicrobial activity against Escherichia coli DC2 by twofold serial microbroth dilution method; type: functional
Pseudomonas aeruginosa [4] = assay: Antimicrobial activity against Pseudomonas aeruginosa K799 by twofold serial microbroth dilution method; type: functional
Pseudomonas aeruginosa [5] = assay: Antimicrobial activity against Pseudomonas aeruginosa Z61 by twofold serial microbroth dilution method; type: functional
Candida albicans = assay: Antimicrobial activity against Candida albicans UBC54 by twofold serial microbroth dilution method; type: functional
Bacillus subtilis = assay: Antimicrobial activity against Bacillus subtilis UBC221 by twofold serial microbroth dilution method; type: functional
Staphylococcus aureus [6] = assay: Antimicrobial activity against methicillin-resistant Staphylococcus aureus SAP00017 by twofold serial microbroth dilution method; type: functional
Staphylococcus aureus [7] = assay: Antimicrobial activity against methicillin-susceptible Staphylococcus aureus RN4220 by twofold serial microbroth dilution method; type: functional
Escherichia coli [8] = assay: Antimicrobial activity against Escherichia coli UB1005 by twofold serial microbroth dilution method; type: functional
Mycobacterium avium [9] = assay: Antimycobacterial activity against isoniazid-resistant Mycobacterium avium at 20 ug/disk by disk diffusion assay; type: functional, organism-based
[10] = test system: Mycobacterium tuberculosis; assay: Antimycobacterial activity against Mycobacterium tuberculosis at 20 ug/disk by disk diffusion assay; type: functional, organism-based
[11] = test system: Mycobacterium tuberculosis; assay: Antimycobacterial activity against Mycobacterium tuberculosis at 10 ug/disk by disk diffusion assay; type: functional, organism-based
Mycobacterium avium [12] = assay: Antimycobacterial activity against isoniazid-resistant Mycobacterium avium at 10 ug/disk by disk diffusion assay; type: functional, organism-based

Compound | Activity (Mycobacterium avium [1]) | Activity [2] | MIC (Escherichia coli [3]) | MIC (Pseudomonas aeruginosa [4]) | MIC (Pseudomonas aeruginosa [5]) | MIC (Candida albicans) | MIC (Bacillus subtilis) | MIC (Staphylococcus aureus [6]) | MIC (Staphylococcus aureus [7]) | MIC (Escherichia coli [8]) | Activity (Mycobacterium avium [9]) | Activity [10] | Activity [11] | Activity (Mycobacterium avium [12])
C=C[C@H](O)C#CC#C[C@@H](O)/C=C\CCCCCCCCOC(C)=O | Active | Active | > 50 µg/mL | > 50 µg/mL | > 50 µg/mL | > 50 µg/mL | 25 µg/mL (≈ 75.2 µM) | > 50 µg/mL | 50 µg/mL (≈ 150 µM) | > 50 µg/mL | Active |  |  | 
CC[C@H](O)C#CC#C[C@@H](O)/C=C\CCCCCCCCOC(C)=O [OPLOPANDIOL ACETATE] | Active | Active | > 50 µg/mL | > 50 µg/mL | > 50 µg/mL | > 50 µg/mL | 25 µg/mL | > 50 µg/mL | 50 µg/mL | > 50 µg/mL | Active | Active |  | 
COc1cccc(OC)c1C(=O)N[C@@H]1C(=O)N2[C@@H]1SC(C)(C)[C@@H]2C(=O)O [METHICILLIN] |  |  | 1.6 µg/mL (≈ 4.21 µM) | > 100 µg/mL | 3.1 µg/mL (≈ 8.15 µM) | > 100 µg/mL | 100 µg/mL (≈ 263 µM) |  | 1.6 µg/mL (≈ 4.21 µM) | > 100 µg/mL |  |  |  | 
NNC(=O)c1ccncc1 | inactive | Active |  |  |  |  |  |  |  |  | inactive | Active | Active | inactive
GENTAMICIN |  |  | 0.6 µg/mL | 1.25 µg/mL | 0.6 µg/mL |  | 1.25 µg/mL | > 10 µg/mL | 0.6 µg/mL | 1.25 µg/mL |  |  |  | 
CCCCCCC/C=C\[C@H](O)C#CC#C[C@@H](O)CC [OPLOPANDIOL] | Active | Active | 6.25 µg/mL (≈ 23.8 µM) | > 50 µg/mL | > 50 µg/mL | 12.5 µg/mL (≈ 47.6 µM) | 6.25 µg/mL (≈ 23.8 µM) | 6.25 µg/mL (≈ 23.8 µM) | 6.25 µg/mL (≈ 23.8 µM) | > 50 µg/mL |  |  |  | 
C=C[C@@H](O)C#CC#C[C@@H](O)/C=C\CCCCCCC [FALCARINDIOL] | Active | Active | 25 µg/mL (≈ 96 µM) | > 50 µg/mL | 50 µg/mL (≈ 192 µM) | 25 µg/mL (≈ 96 µM) | 6.25 µg/mL (≈ 24 µM) | 25 µg/mL (≈ 96 µM) | 25 µg/mL (≈ 96 µM) | > 50 µg/mL | Active |  |  | 
C=C[C@H](O)C#CC#CC/C=C\CCCCCCC [FALCARINOL] | Active | Active | 6.25 µg/mL (≈ 25.6 µM) | > 50 µg/mL | 6.25 µg/mL (≈ 25.6 µM) | 6.25 µg/mL (≈ 25.6 µM) | 3.1 µg/mL (≈ 12.7 µM) | 3.1 µg/mL (≈ 12.7 µM) | 3.1 µg/mL (≈ 12.7 µM) | > 50 µg/mL | Active | Active |  | 

From ChEMBL document CHEMBL1158854, “Antimycobacterial polyynes of Devil's Club (Oplopanax horridus), a North American native medicinal plant” (1997)
